Among the data in PubChem BioAssay (NCI) are GI50 and TGI values, retold here.

Some test systems named below: ACHN renal; COLO 205 colon; NCI-H23 lung; OVCAR-8 ovarian; PC-3 prostate; SF-268 CNS; SF-539 CNS; SN12C renal; T-47D breast; UACC-62 melanoma.
Common to all, as to assay: NCI tumour cell line growth inhibition, 48 h

Molecules are shown by their SMILES. Values joined by “and” are separate entries in the source; they are usually repeats but may differ in a detail not shown here. Equal values may be shown once.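 Protocol summary: plate cells (96-well), add compound at 5 concentrations, incubate 48 h, interpolate endpoints linearly. GI50 marks 50% less growth. TGI: concentration producing complete growth inhibition.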

For the compound `CN(C)C[C@@H]1CCn2cc(c3ccccc32)C2=C(C(=O)NC2=O)c2cn(c3ccccc23)CCO1`, the GI50 in the test on ACHN renal was 2.04 µM; with COLO 205 colon it was 1.03 µM; in the test with NCI-H23 lung, 2.95 µM; in the test with OVCAR-8 ovarian it was 0.598 µM; with PC-3 prostate, 1.77 µM; in the test on SF-268 CNS, 4.1 µM. Further, the GI50 is 1.08 µM in the test on SF-539 CNS, 0.679 µM with SN12C renal, 0.828 µM in the test with T-47D breast and 0.792 µM with UACC-62 melanoma. Moreover, the TGI is over 10 µM in the test with ACHN renal; over 10 µM with COLO 205 colon; over 10 µM with NCI-H23 lung; 8.33 µM in the test with OVCAR-8 ovarian; over 10 µM in the test on PC-3 prostate; over 10 µM in the test on SF-268 CNS. Also, the TGI in the test on SF-539 CNS was 2.45 µM; with SN12C renal it was 5.85 µM; in the test on T-47D breast, over 10 µM; in the test on UACC-62 melanoma it was over 10 µM.
In the case of `COc1ccc(Cl)cc1Nc1nc(C(F)(F)F)ccc1C(=O)N/N=C/c1ccccc1Cl`, the GI50 is 2.01 µM with ACHN renal; 1.7 µM with COLO 205 colon; 2.99 µM in the test with NCI-H23 lung; 2.4 µM in the test on OVCAR-8 ovarian; 2.84 µM with PC-3 prostate; 2.22 µM in the test on SF-268 CNS. Moreover, the GI50 is 1.85 µM with SF-539 CNS, 2.56 µM in the test with SN12C renal, 1.71 µM in the test on T-47D breast and 1.93 µM in the test with UACC-62 melanoma. Also, the TGI with ACHN renal is over 25.4 µM; in the test on COLO 205 colon, 4.18 µM; with NCI-H23 lung, over 31.4 µM; in the test on OVCAR-8 ovarian, over 31 µM; in the test on PC-3 prostate it was over 100 µM; in the test on SF-268 CNS it was over 23.2 µM. Moreover, the TGI in the test with SF-539 CNS was 5.03 µM; in the test with SN12C renal it was over 100 µM; in the test on T-47D breast, 7.68 µM; in the test with UACC-62 melanoma, 9.83 µM.
With `CCN(CC)CCOc1ccc(NC(=O)C(C(C)C)N2C(=O)/C(=C/c3ccc(Br)cc3)SC2=S)cc1` (stereo not drawn), the GI50 was 1.78 µM in the test with ACHN renal; 2.64 µM in the test with COLO 205 colon; 3.74 µM in the test on NCI-H23 lung; 3.24 µM with OVCAR-8 ovarian; 3.17 µM in the test on PC-3 prostate; 2.27 µM in the test on SF-268 CNS. Further, the GI50 in the test on SF-539 CNS was 1.87 µM; in the test with SN12C renal it was 1.71 µM; with T-47D breast, 3.63 µM; in the test with UACC-62 melanoma, 1.81 µM. For the same compound, the TGI in the test with ACHN renal amounted to 3.25 µM; in the test with COLO 205 colon it was 6.88 µM; in the test with NCI-H23 lung, 13.9 µM; in the test on OVCAR-8 ovarian, 10.3 µM; with PC-3 prostate, 12.1 µM; with SF-268 CNS, 5.85 µM. For the same compound, the TGI was 3.55 µM in the test with SF-539 CNS, 3.29 µM in the test with SN12C renal, 19 µM in the test with T-47D breast and 3.53 µM in the test on UACC-62 melanoma.
In the case of `O=C(Nc1cccc(-n2ccc3c(NC(=O)c4ccccc4)nccc32)c1)c1ccc(Cl)c(Cl)c1`, the GI50 in the test on ACHN renal was 0.177 µM; with COLO 205 colon it was 0.124 µM; in the test with NCI-H23 lung it was 0.342 µM; in the test with OVCAR-8 ovarian it was 0.274 µM; with PC-3 prostate it was 0.0965 µM; with SF-268 CNS, 0.19 µM. Besides, the GI50 with SF-539 CNS is 0.197 µM; in the test with SN12C renal, 0.38 µM; in the test with T-47D breast, 1.32 µM; with UACC-62 melanoma it was 0.0535 µM. In addition, the TGI with ACHN renal is 1.71 µM; with COLO 205 colon, 0.517 µM; with NCI-H23 lung it was 2.47 µM; with OVCAR-8 ovarian, 1.86 µM; in the test on PC-3 prostate it was 1.52 µM; in the test with SF-268 CNS, 2.18 µM. Besides, the TGI is 0.952 µM with SF-539 CNS, 1.78 µM in the test on SN12C renal, 2.85 µM in the test with T-47D breast and 1.63 µM in the test on UACC-62 melanoma.
On to `COc1ccc2c(c1)C(=O)/C(=C/c1cccc(OCC(=O)c3ccc([N+](=O)[O-])cc3)c1)CO2`, for which the GI50 in the test with ACHN renal is 2.32 µM; in the test on COLO 205 colon, 2.74 µM; with NCI-H23 lung, 2.52 µM; with OVCAR-8 ovarian, 2.85 µM; in the test on PC-3 prostate, 2.13 µM; with SF-268 CNS, 2.7 µM. Moreover, the GI50 in the test on SF-539 CNS was 2.33 µM; with SN12C renal it was 2.92 µM; in the test with T-47D breast, 1.65 µM; with UACC-62 melanoma it was 2.82 µM. In addition, the TGI in the test on ACHN renal was determined as 6.41 µM; in the test with COLO 205 colon it was 6.33 µM; in the test on NCI-H23 lung it was 6.33 µM; in the test on OVCAR-8 ovarian it was 9.66 µM; in the test with PC-3 prostate, 7.95 µM; in the test with SF-268 CNS, 7.74 µM. For the same compound, the TGI with SF-539 CNS is 6.12 µM; with SN12C renal it was 11.4 µM; with T-47D breast, 4.54 µM; in the test with UACC-62 melanoma, 9.36 µM.
Turning to `CN(C)c1ccc(/C=N/n2c(CCCCc3n[nH]c(=S)n3/N=C/c3ccc(N(C)C)cc3)n[nH]c2=S)cc1`, the GI50 with ACHN renal, in the test on COLO 205 colon, in the test on NCI-H23 lung, in the test on OVCAR-8 ovarian, in the test with PC-3 prostate and in the test on SF-268 CNS was over 100 µM each time. Further, the GI50 was over 100 µM with SF-539 CNS, over 100 µM with SN12C renal, 0.022 µM in the test on T-47D breast and over 100 µM in the test with UACC-62 melanoma. In addition, the TGI with ACHN renal, in the test on COLO 205 colon, in the test on NCI-H23 lung, in the test with OVCAR-8 ovarian, in the test on PC-3 prostate and with SF-268 CNS was over 100 µM in each case. Also, the TGI in the test with SF-539 CNS is over 100 µM; with SN12C renal, over 100 µM; in the test with T-47D breast, 17.3 µM; in the test with UACC-62 melanoma it was over 100 µM.
As for `CN(CO)c1nc(N(C)CO)nc(N(C)CO)n1`, the TGI was 79.2 µM and 75.6 µM in the test with ACHN renal; 44.1 µM and 20.9 µM in the test on COLO 205 colon; 59.8 µM and 91.7 µM in the test on NCI-H23 lung; 55.6 µM and 38.4 µM in the test with OVCAR-8 ovarian; 45.6 µM and 51.3 µM in the test with PC-3 prostate; 64.1 µM and 70.2 µM in the test with SF-268 CNS. Moreover, the TGI in the test on SF-539 CNS was 52.4 µM and 36.9 µM; with SN12C renal, 70.5 µM and 57.8 µM; with T-47D breast it was 67.7 µM and 211 µM; with UACC-62 melanoma, 33.8 µM and 25.4 µM. For the same compound, the GI50 in the test on COLO 205 colon was 20.9 µM; in the test on NCI-H23 lung it was 25.4 µM; in the test on OVCAR-8 ovarian, 23.6 µM; with SF-268 CNS, 26.2 µM and 18.5 µM; in the test on SF-539 CNS, 23.6 µM and 17.2 µM; in the test with SN12C renal, 27.6 µM and 19.5 µM. Besides, the results for the GI50 in the test on T-47D breast and in the test with UACC-62 melanoma were 25 µM and 17.2 µM, respectively.
Turning to `Cn1c2ccccc2c2c(=O)n(CCCC(=O)NCCc3cnc[nH]3)c3c(-c4ccccc4)nnn3c21`, the GI50 with ACHN renal was 9.74 µM; in the test with COLO 205 colon, 8.51 µM; with NCI-H23 lung, 13.3 µM; with OVCAR-8 ovarian it was 10.1 µM; in the test with PC-3 prostate, 9.01 µM; in the test with SF-268 CNS, 11.7 µM. In addition, the GI50 is 9.26 µM in the test on SF-539 CNS, 8.76 µM in the test on SN12C renal, 10.4 µM in the test with T-47D breast and 9.87 µM in the test with UACC-62 melanoma. Besides, the TGI with ACHN renal is 17.9 µM; in the test with COLO 205 colon, 19.6 µM; in the test on NCI-H23 lung, 46.9 µM; in the test on OVCAR-8 ovarian, 20.8 µM; with PC-3 prostate, 20.1 µM; in the test with SF-268 CNS, 31.6 µM. The TGI in the test on SF-539 CNS worked out at 17.2 µM; in the test with SN12C renal it was 18.7 µM; with T-47D breast, 25.1 µM; in the test with UACC-62 melanoma it was 17.6 µM.
Take `N#Cc1ccc(O)c(C2=NCC(c3ccc(-c4ccccc4)cc3)O2)c1` (stereo not drawn): the GI50 is 0.418 µM with ACHN renal; 0.349 µM in the test on COLO 205 colon; 0.703 µM with NCI-H23 lung; 0.361 µM in the test with OVCAR-8 ovarian; 0.471 µM in the test on PC-3 prostate; 0.499 µM in the test on SF-268 CNS. Further, the GI50 is 0.517 µM with SF-539 CNS, 0.606 µM in the test with SN12C renal, 0.565 µM with T-47D breast and 0.407 µM with UACC-62 melanoma. Besides, the TGI with ACHN renal came out at 12.4 µM; in the test on COLO 205 colon it was 14.8 µM; with NCI-H23 lung it was 17.2 µM; in the test with OVCAR-8 ovarian, 13 µM; in the test on PC-3 prostate, 22.8 µM; in the test with SF-268 CNS, 16.1 µM. Besides, the TGI with SF-539 CNS came to 11.4 µM; in the test with SN12C renal it was 16.9 µM; with T-47D breast it was 24.1 µM; in the test on UACC-62 melanoma, 1.61 µM.
For the compound `COc1ccccc1-c1ccc2c(N)c(C(=O)c3ccc4c(c3)OCO4)sc2n1`, the GI50 in the test on ACHN renal was 4.07 µM; in the test with COLO 205 colon, 10 µM; in the test on NCI-H23 lung, 12.9 µM; in the test with OVCAR-8 ovarian, 4.57 µM; in the test with PC-3 prostate, 10.6 µM; with SF-268 CNS it was 7.55 µM. In addition, the GI50 was 4.94 µM in the test on SF-539 CNS, 6.14 µM in the test on SN12C renal, 3.39 µM in the test with T-47D breast and 4.12 µM in the test with UACC-62 melanoma. Also, the TGI with ACHN renal was 13.5 µM; in the test on COLO 205 colon, 31 µM; with NCI-H23 lung, 52.8 µM; in the test on OVCAR-8 ovarian, 16.7 µM; in the test with PC-3 prostate, 40.3 µM; in the test with SF-268 CNS, 32.4 µM. The TGI with SF-539 CNS is 17 µM; in the test with SN12C renal, 24.5 µM; with T-47D breast it was 14.4 µM; with UACC-62 melanoma it was 18.6 µM.
